Data from publication PMC12564265, “Navigating the Deep Eutectic Solvent Landscape: Experimental and Machine Learning Solubility Explorations of Syringic, p-Coumaric, and Caffeic Acids” (International Journal of Molecular Sciences, 2025).
“And” between values parts separate entries of the source, which are not always exact repeats. Equal values may be shown once.

Assay: Shake-flask solubility with spectrophotometric measurement in aqueous DES mixtures
Format: physicochemical
Procedure: In order to determine the solubility of the three studied phenolic acids in deep eutectic solvents, a very well-established shake-flask method coupled with spectrophotometric measurements was utilized. The initial procedure involved the preparation of various DESs, which was conducted by mixing their HBA and HBD counterparts in a glass vessel and heating the composition until the formation of a transparent, uniform liquid. […] For additional measurements, the DESs were mixed with water in varying proportions, creating aqueous DES systems. Saturated solutions of CAF, SYR, and COU were obtained by adding excess amounts of these compounds to test tubes containing either a neat deep eutectic solvent or its aqueous solution. Such samples were placed in the Orbital Shaker Incubator ES-20/60 from Biosan (Riga, Latvia) and heated for 24 h at 25 °C, 30 °C, 35 °C, and 40 °C (±0.1 °C) with simultaneous mixing at 60 rpm. Before measurements, the samples were filtered using a PTFE syringe filter from Qpore (Dallas, TX, USA) with a 0.22 μm pore size. In order to avoid possible precipitation of the saturated solutions at decreased temperatures, the test tubes, syringes, pipette tips, and filters were kept at a temperature identical to that of the samples. The spectrophotometric measurements required the preparation of calibration curves for the three APIs. This involved the preparation of a stock solution of each compound in methanol, which was later successfully diluted, and the obtained solutions of varying concentrations were measured using an A360 spectrophotometer from AOE Instruments (Shanghai, China). The wavelength range was set to 200-500 nm, and the resolution was 1 nm. The analytical wavelengths were determined to be 324 nm for caffeic acid, 273 nm for syringic acid, and 308 nm for p-coumaric acid. The final regression equations, obtained after averaging three distinct sets of measurements, are collected in Table 2 together with determination coefficients and limits of detection (LOD) and quantification (LOQ) for the calibration curves. The measurements of the samples were conducted with the same spectrophotometer and identical settings. Methanol was used for the dilution of the samples so that they could remain within the linearity range of the method. Complete spectra of the samples were recorded, but for the solubility determination, the absorbance values at a specific analytical wavelength were considered. These values were combined with the corresponding regression equations of the calibration curves and served for the calculation of the concentration of the three phenolic acids in the studied samples. The densities of such samples were also measured, and for this task 1 mL of each sample was weighed to a precision of 0.1 mg using an AS 110 R2.PLUS analytical balance from […] (Radom, Poland). The obtained densities enabled the calculation of mole fractions of CAF, SYR, and COU dissolved in the studied DESs. For each considered system, three distinct measurements were conducted, and the results were averaged.

Mole fraction solubility (Bet – GLY 1:2 + water, x*DES 0.1, 25°C): 0.0093±0.0001 mole fraction | Mole fraction solubility (Bet – GLY 1:2 + water, x*DES 0.1, 30°C): 0.0116±0.0001 mole fraction | Mole fraction solubility (Bet – GLY 1:2 + water, x*DES 0.1, 35°C): 0.0146±0.0001 mole fraction | Mole fraction solubility (Bet – GLY 1:2 + water, x*DES 0.1, 40°C): 0.0188±0.0001 mole fraction | Mole fraction solubility (Bet – GLY 1:2 + water, x*DES 0.2, 25°C): 0.0212±0.0003 mole fraction | Mole fraction solubility (Bet – GLY 1:2 + water, x*DES 0.2, 30°C): 0.0261±0.0002 mole fraction | Mole fraction solubility (Bet – GLY 1:2 + water, x*DES 0.2, 35°C): 0.0328±0.0003 mole fraction | Mole fraction solubility (Bet – GLY 1:2 + water, x*DES 0.2, 40°C): 0.0429±0.0003 mole fraction | Mole fraction solubility (Bet – GLY 1:2 + water, x*DES 0.3, 25°C): 0.0316±0.0004 mole fraction | Mole fraction solubility (Bet – GLY 1:2 + water, x*DES 0.3, 30°C): 0.0385±0.0003 mole fraction | Mole fraction solubility (Bet – GLY 1:2 + water, x*DES 0.3, 35°C): 0.0489±0.0004 mole fraction | Mole fraction solubility (Bet – GLY 1:2 + water, x*DES 0.3, 40°C): 0.0631±0.0003 mole fraction | Mole fraction solubility (Bet – GLY 1:2 + water, x*DES 0.4, 25°C): 0.0424±0.0005 mole fraction | Mole fraction solubility (Bet – GLY 1:2 + water, x*DES 0.4, 30°C): 0.0510±0.0004 mole fraction | Mole fraction solubility (Bet – GLY 1:2 + water, x*DES 0.4, 35°C): 0.0654±0.0004 mole fraction | Mole fraction solubility (Bet – GLY 1:2 + water, x*DES 0.4, 40°C): 0.0850±0.0007 mole fraction | Mole fraction solubility (Bet – GLY 1:2 + water, x*DES 0.5, 25°C): 0.0545±0.0003 mole fraction | Mole fraction solubility (Bet – GLY 1:2 + water, x*DES 0.5, 30°C): 0.0655±0.0004 mole fraction | Mole fraction solubility (Bet – GLY 1:2 + water, x*DES 0.5, 35°C): 0.0843±0.0006 mole fraction | Mole fraction solubility (Bet – GLY 1:2 + water, x*DES 0.5, 40°C): 0.1107±0.0012 mole fraction | Mole fraction solubility (Bet – GLY 1:2 + water, x*DES 0.6, 25°C): 0.0687±0.0004 mole fraction | Mole fraction solubility (Bet – GLY 1:2 + water, x*DES 0.6, 30°C): 0.0827±0.0006 mole fraction | Mole fraction solubility (Bet – GLY 1:2 + water, x*DES 0.6, 35°C): 0.1045±0.0009 mole fraction | Mole fraction solubility (Bet – GLY 1:2 + water, x*DES 0.6, 40°C): 0.1410±0.0021 mole fraction | Mole fraction solubility (Bet – GLY 1:2 + water, x*DES 0.7, 25°C): 0.0803±0.0006 mole fraction | Mole fraction solubility (Bet – GLY 1:2 + water, x*DES 0.7, 30°C): 0.0972±0.0008 mole fraction | Mole fraction solubility (Bet – GLY 1:2 + water, x*DES 0.7, 35°C): 0.1233±0.0020 mole fraction | Mole fraction solubility (Bet – GLY 1:2 + water, x*DES 0.7, 40°C): 0.1617±0.0014 mole fraction | Mole fraction solubility (Bet – GLY 1:2 + water, x*DES 0.8, 25°C): 0.0900±0.0007 mole fraction | Mole fraction solubility (Bet – GLY 1:2 + water, x*DES 0.8, 30°C): 0.1117±0.0011 mole fraction | Mole fraction solubility (Bet – GLY 1:2 + water, x*DES 0.8, 35°C): 0.1413±0.0023 mole fraction | Mole fraction solubility (Bet – GLY 1:2 + water, x*DES 0.8, 40°C): 0.1818±0.0015 mole fraction | Mole fraction solubility (Bet – GLY 1:2 + water, x*DES 0.9, 30°C): 0.1149±0.0011 mole fraction | Mole fraction solubility (Bet – GLY 1:2 + water, x*DES 0.9, 35°C): 0.1464±0.0025 mole fraction | Mole fraction solubility (Bet – GLY 1:2 + water, x*DES 0.9, 40°C): 0.1934±0.0021 mole fraction | Mole fraction solubility (Bet – GLY 1:2, x*DES 1.0 (neat DES), 25°C): 0.0898±0.0003 mole fraction | Mole fraction solubility (Bet – GLY 1:2, x*DES 1.0 (neat DES), 30°C): 0.1090±0.0010 mole fraction | Mole fraction solubility (Bet – GLY 1:2, x*DES 1.0 (neat DES), 35°C): 0.1389±0.0009 mole fraction | Mole fraction solubility (Bet – GLY 1:2, x*DES 1.0 (neat DES), 40°C): 0.1842±0.0017 mole fraction | Increase in the solubility compared to the neat DES (Bet-GLY 1:2, x*DES = 0.9 (xwater = 0.1), 25 °C): 3% | Mole fraction solubility (ChCl – TEG 1:2 + water, x*DES 0.1, 25°C): 0.0131±0.0002 mole fraction | Mole fraction solubility (ChCl – TEG 1:2 + water, x*DES 0.1, 30°C): 0.0168±0.0002 mole fraction | Mole fraction solubility (ChCl – TEG 1:2 + water, x*DES 0.1, 35°C): 0.0216±0.0002 mole fraction | Mole fraction solubility (ChCl – TEG 1:2 + water, x*DES 0.1, 40°C): 0.0287±0.0003 mole fraction | Mole fraction solubility (ChCl – TEG 1:2 + water, x*DES 0.2, 25°C): 0.0283±0.0002 mole fraction | Mole fraction solubility (ChCl – TEG 1:2 + water, x*DES 0.2, 30°C): 0.0357±0.0002 mole fraction | Mole fraction solubility (ChCl – TEG 1:2 + water, x*DES 0.2, 35°C): 0.0459±0.0004 mole fraction | Mole fraction solubility (ChCl – TEG 1:2 + water, x*DES 0.2, 40°C): 0.0604±0.0004 mole fraction | Mole fraction solubility (ChCl – TEG 1:2 + water, x*DES 0.3, 25°C): 0.0412±0.0004 mole fraction | Mole fraction solubility (ChCl – TEG 1:2 + water, x*DES 0.3, 30°C): 0.0506±0.0006 mole fraction
SMILES: O=C(O)C=Cc1ccc(O)cc1 [p-coumaric acid, 4-hydroxycinnamic acid]
Mole fraction solubility (Bet – GLY 1:2 + water, x*DES 0.9, 25°C): 0.0926 mole fraction and 0.0926±0.0006 mole fraction
